Results as given in patent US10780069B2, “Use of GC-1 in transplant related population” (University of Pittsburgh—Of the Commonwealth System of …, priority 2017, dated 2020).
Entries after “also recorded” stand apart in the source; their conditions may differ.

Key:
[1] = Serum ALT/bilirubin and hepatic histology after GC-1 or T3; assay type: in vivo, mice
Description: All studies on mice were performed in strict accordance with Guidelines. Eight-week old male C57BL/6 male mice (Jackson/Charles River) were maintained on a standard laboratory basal diet (Test Diet) (n=4), or fed a T3-supplemented diet (4 mg/Kg of diet, Sigma Chemicals, St. Louis Mo.) (n=4). GC-1 was administered to the eight week-old male C57BL/6 male mice either via GC-1-supplemented diet (5 mg/Kg of diet, Medchem Express) for 8 days (n=4) or via daily intraperitoneal injections (IP) of GC-1 dissolved in DMSO (0.3 mg/kg/dose) for 8 days (n=7). As a control group for injections, DMSO alone was injected daily intraperitoneal (IP) for 8 days (n=5). Mice were sacrificed 24 hours after the last injection.

hepatocytes [2] = assay: GC-1 or T3 in hepatocyte specific β-catenin knockout mice (β-Cat LKO) and littermate controls; assay type: in vivo
Description: Eight to 10 week old male hepatocyte specific β-catenin knockout mice (β-cat-LKO) or sex-matched littermate controls obtained from breeding homozygous floxed β-catenin mice and albumin-cre transgenic mice (as described elsewhere (Tan et al., (2006) Gastroenterology 131, 1561-1572)) were given 8 daily IP injections of GC-1 (n=4) or DMSO (n=4) and harvested around 24 hours after the last injection.
To label dividing hepatocytes, BrdU (5-bromodeoxyuridine) dissolved in drinking water (1 mg/ml) was given to all animals throughout the experiment period. The animals were given food and water ad libitum with a 12-hour light/dark daily cycle.
Four micron liver sections were analyzed by immunohistochemistry for β-Catenin (BD Biosciences, San Jose, Calif.), Cyclin-D1 (Thermo-Scientific, Fremont, Calif.) and PCNA (Santa Cruz Biotechnology, Dallas, Tex.). Briefly, formalin-fixed sections were deparaffinized in graded xylene and alcohol. Endogenous peroxidase was inactivated using 3% hydrogen peroxide (Sigma). For β-Catenin, Cyclin-D1 staining, slides were microwaved in Citrate buffer followed by blocking with Superblock for 10 minutes. Sections were then incubated with secondary anti-mouse (for β-catenin) or anti-rabbit (for Cyclin-D1) horseradish peroxidase-conjugated antibody for 30 minutes.
Bromodeoxyuridine (BrdU) was stained with mouse antibody (Becton Dickinson) as previously described (Fanti et al. (2014) Hepatology 59, 2309-2320). Briefly, tissue sections were deparaffinized, exposed to 0.3% hydrogen peroxide in deionized water for 10 minutes to block endogenous peroxidase, treated with 2N HCl, incubated with trypsin 0.1% for 20 minutes and then with normal goat serum for 20 minutes at room temperature. Sections were then incubated overnight in cold room with anti-BrdU monoclonal antibody, followed by biotinylated goat anti-mouse IgG. DAB kit was then applied, and sections were counterstained with hematoxylin. A small segment of intestine was included from each mouse as a positive control for the staining. For quantification of BrdU staining, at least 10 high power fields (400× or 600×) fields each from at least three biological replicates were counted as indicated in the figures. Statistical analysis was performed as described below.
Protein extraction from frozen liver tissue and western blot analysis were performed as previously described (Fanti et al., (2014) Hepatology 59, 2309-2320). For protein extraction, a small amount of frozen liver tissue was obtained (over dry ice) and was homogenized using RIPA buffer with protease and phosphatase inhibitor cocktail (Sigma, St. Louis, Mo.). Samples were transferred to a 1.5 ml tube on ice, and spun in cold room centrifuge at 14,000 RPM for 5 minutes. Pellet was then discarded and sample was aliquoted and stored at −80 C for use. Fifty micrograms of the proteins were resolved by sodium dodecyl sulfate-polyacrylamide gel electrophoresis analysis, and transferred to immobilon-polyvinylidene difluoride membranes.
The primary antibodies used were against β-catenin (BD Biosciences); pSer675-β-catenin, pSer552-β-catenin, Active-β-catenin (Cell-Signaling), Cyclin-D1 (Thermo-Scientific), and β-Actin (Sigma). Dilutions of primary antibody were done according to manufacturer recommendations (1:1000 for all except Cyclin-D1 which was 1:200). Horseradish peroxidase-conjugated secondary antibodies used were goat anti-mouse (1:20,000) and goat anti-rabbit (1:10,000) (Millipore). The proteins were detected by Super-Signal West Pico Chemiluminescense Substrate (Thermo Scientific, Rockford Ill.) and visualized by autoradiography.
Total RNA was extracted by homogenizing frozen liver tissues in Trizol reagent (Invitrogen, Carlsbad, Calif.) from GC-1-injected β-Cat LKO (n=4) and littermate control mice (n=4); and GC-1-injected LRP5-6 LKO (n=3) and littermate control mice (n=3). […]

[3] = test system: β-catenin-TCF4 reporter activity in Snu-398 cells (point-mutant β-catenin); assay: TopFlash reporter assay in Snu-398 cells; assay type: cell-based, human; settings: 7 μM GC-1 (methods: 5-7 μM, 24 hours), vs DMSO
From the text: Three liver tumor cell lines Hep3B, HepG2 and Snu-398 cells were obtained from ATCC (Manassas, Va.). Cells were transfected simultaneously with Renilla reniformis luciferase (pRL-TK; Promega, Madison, Wis.) as a transfection control and TopFlash firefly luciferase plasmids (Upstate Biotechnology, Lake Placid, N.Y.), which contains three copies of the Tcf/Lef sites upstream of a thymidine kinase (TK) promoter and the firefly luciferase gene using Lipofectamine 2000 (Life Technologies). Twenty-four hours after transfection, cells were treated with either DMSO (Fisher Scientific) or 5-7 μM GC-1 (Medchem Express, Monmouth Junction, N.J.) for 24 hours. Lysates were harvested using the Dual-Luciferase Reporter Assay System (Promega, Madison, Wis.). Firefly luciferase signals were normalized to Renilla luciferase and ratio between groups compared by student's t-test to determine significance. P<0.05 was considered significant.

hepatocytes [4] = assay: GC-1 or T3 in hepatocyte specific β-catenin knockout mice (β-Cat LKO) and littermate controls; assay type: in vivo; settings: control mice, GC-1 treated vs basal diet
[5] = test system: preneoplastic hepatocytes; settings: resistant-hepatocyte model of hepatocarcinogenesis (T3, rats); Ledda-Columbano 2000, Perra 2009; cited from earlier work

Cc1cc(OCC(=O)O)cc(C)c1Cc1ccc(O)c(C(C)C)c1 [GC-1, Sobetirome]
serum ALT or total bilirubin ([1]; GC-1 0.3 mg/Kg/dose daily IP 8 days, vs DMSO control): insignificant differences | hepatic histology (H&E) ([1]; GC-1 daily IP 8 days, vs DMSO control): normal hepatic histology | histological changes in the livers ([1]; T3 (4 mg/Kg of diet) or GC-1 (5 mg/Kg of diet) chow 8 days, vs basal diet): no histological changes | active β-catenin, Western blot (hepatocytes [2]; β-Cat LKO after T3 or GC-1 treatment): very faint signal | P-Ser675-β-catenin, Western blot (hepatocytes [2]; β-Cat LKO vs controls treated with GC-1 or T3): absent | nuclear cyclin-D1 by immunohistochemistry (hepatocytes [2]; β-Cat LKO vs controls, GC-1): notable decrease | BrdU incorporation in hepatocytes (hepatocyte proliferation) (hepatocytes [2]; β-Cat LKO vs littermate controls, GC-1 0.3 mg/Kg/dose IP, 8 days): decreased hepatocyte proliferation | BrdU incorporation in non-parenchymal cell population (hepatocytes [2]; β-Cat LKO, GC-1 IP): notable BrdU incorporation continued to occur | cyclin-D1 mRNA expression (RT-PCR) (hepatocytes [2]; β-catenin-LKO mice receiving GC-1 vs controls): significant decrease | TopFlash luciferase reporter activity [3]: no significant effect; also recorded: insignificant differences | active-β-catenin, Western blot (hepatocytes [4]): notable increase | effect on preneoplastic lesions / carcinogenic process [5]: negatively influence the carcinogenic process
